US10556865B2, “Synergistic herbicidal composition containing certain pyridine or pyrimidine carboxylic acids and certain cereal and rice herbicides” (Dow AgroSciences, LLC, priority 2007, dated 2020)
Values joined by “and” are separate entries in the source; they are usually repeats but may differ in a detail not shown here. Identical values can stand only once.

Experiments:
Type in all cases: in vivo
[1] = system: Digitaria sanguinalis (L.) SCOP. (DIGSA); assay: Postemergence herbicidal mixtures for weed control in direct seeded rice (greenhouse, visual % injury)
[2] = system: Scirpus maritimus L. (SCPMA); assay: as above; settings: SCPMA
[3] = system: Brachiaria platyphylla (BRISEB.) NASH (BRAPP); assay: as above
[4] = system: Cyperus esculentus L. (CYPES); assay: as above; settings: for % Injury Ob: CYPES
[5] = system: Ischaemum rugosum SALISB. (ISCRU); assay: as above
[6] = system: Eleocharis kuroguwai OHWI (ELOKU); assay: Herbicidal mixtures for weed control in transplanted paddy rice (in-water application, visual % injury)
Outline: (§1)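 Mixtures injected into paddy water of flooded pots (transplanted rice, weeds at 2nd–3rd true leaf stage, ~29/26 °C greenhouse); compounds A, C, D dosed as acid equivalent, partners as active ingredient, in acetone/crop oil concentrate carrier. Injury scored visually after 3 weeks versus untreated plants, 0 (none) to 100% (complete kill).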

[7] = system: Scirpus maritimus L. (SCPMA); assay: as above
Outline: as §1

Row | SMILES | % Injury Ob ([1]; 8.75 g/ha alone) [%] | % Injury Ob ([1]; 17.5 g/ha alone) [%] | % Injury Ob ([2]; 4.38 g/ha alone) [%] | % Injury Ob ([2]; 8.75 g/ha alone) [%] | % Injury Ob ([3]; 4.38 g/ha alone) [%] | % Injury Ob ([3]; 8.75 g/ha alone) [%] | % Injury 11 DAA CYPES Ob ([4]; alone 8.75 g/ha) [%] | % Injury 11 DAA CYPES Ob ([4]; alone 17.5 g/ha) [%] | % Injury 21 DAA CYPES Ob ([4]; alone 8.75 g/ha) [%] | % Injury 21 DAA CYPES Ob ([4]; alone 17.5 g/ha) [%] | % Injury Ob ([4]; 4.38 g/ha alone) [%] | % Injury Ob ([4]; 8.75 g/ha alone) [%] | % Injury CYPES Ob ([4]; alone 4.38 g/ha) | % Injury ISCRU Ob ([5]; alone 8.75 g/ha) [%] | % Injury ISCRU Ob ([5]; alone 17.5 g/ha) [%] | % Injury Ob ([6]; 35 g/ha alone) [%] | % Injury Ob ([6]; 70 g/ha alone) [%] | % Injury Ob ([7]; 35 g/ha alone) [%] | % Injury Ob ([7]; 70 g/ha alone) [%]
1 | COC(=O)c1nc(-c2ccc(Cl)c(OC)c2F)cc(N)c1Cl [Compound A Methyl, 4-amino-3-chloro-6-(4-chloro-2-fluoro-3-methoxyphenyl)pyridine-2-carboxylic acid methyl ester] | 20 | 50 | 0 | 10 | 60 | 60 | 60 | 70 | 100 | 99 | 40 | 60 | 70% and 85% | 50 | 55 |  |  |  | 
2 | COc1c(Cl)ccc(-c2cc(N)c(Cl)c(C(=O)O)n2)c1F [Compound A TEA, 4-amino-3-chloro-6-(4-chloro-2-fluoro-3-methoxyphenyl)pyridine-2-carboxylic acid] |  |  |  |  |  |  |  |  |  |  |  |  |  |  |  | 30 | 20 | 0 | 50
